Data on seven compounds can be found in US7572832B2, “Non-hygroscopic L-carnitine salts” (Biolink Life Sciences, Inc., priority 2007, dated 2009).

Series [1] is described as follows: Observation of hygroscopicity and storage stability of the isolated solid on exposure to the atmosphere. Format: physicochemical. As for the experimental part: The term “non-hygroscopic” means the ability endowed by certain L-carnitine salts, when they occur as powders or granules, to withstand exposure to the water vapor of an ambient atmosphere for 24 hours or longer without giving rise to adverse phenomena of aggregating, agglomerating, absorbing water, or deliquescing which results in loss of their flowability.
Attempted preparation of L-carnitine calcium succinate. A mixture of calcium succinate ([…], 0.003 mol) and L-carnitine (0.5 g, 0.003 mol) was dissolved in water (5 mL) and stirred at room temperature for 30 minutes. Dissolution was incomplete, and the reaction temperature was raised to 80° C. Stirring was continued at the higher temperature for 3 hr. The resulting solution was cooled to room temperature and filtered, and the filtrate was concentrated at reduced pressure to a white solid.
Attempted preparation of L-carnitine calcium salt. A mixture of calcium hydroxide (0.22 g, 0.003 mol) was suspended in acetone (100 mL) and a concentrated solution of L-carnitine (0.5 g, 0.003 mol) in the minimum volume of water needed to effect dissolution was added. The resulting reaction mixture was heated at reflux for 4 hours. Dissolution remained incomplete. The reaction mixture was filtered hot. The filtrate was concentrated at reduced pressure to a white solid.

Details of series [2]: species or system human. Conditions: in vivo, iv. From the text:
Physiological effects of administration by injection of a solution of L-carnitine calcium acetate. The inventors expect that a study paralleling that of Golper et al. (Example 9, vide infra) may be completed in which L-carnitine calcium acetate of the present invention is substituted for the L-carnitine of Golper et al. L-Carnitine calcium acetate of the present invention has a known molecular weight and composition and is water soluble. Therefore, intravenously administrable solutions of L-carnitine calcium acetate can be prepared that will provide a known concentration of L-carnitine. The intravenously administrable solutions of L-carnitine calcium acetate of the present invention may be provided to test subjects as sterile aqueous solutions of L-carnitine calcium acetate which will be administered by injecting over one to three minutes in the venous line during the blood return immediately after the end of every dialysis treatment. In the alternative, the inventors expect that the unique physico-chemical properties of L-carnitine calcium acetate of the present invention will permit incorporation of L-carnitine calcium acetate into dialysate as a source of L-carnitine and as a partial or total replacement for the calcium that is conventionally included in dialysate.

Series [3] in a line: Determination of hygroscopicity or deliquescence (exposure study). Conditions: for change in mass, final vs initial net weight: + = increase, 1% or greater increase = hygroscopic, less than 1% change = stable and non-hygroscopic; for Net weight, final: open glass container, ambient atmosphere, end of 6-day storage period.
Description: The hygroscopicity or deliquescence of L-carnitine compounds was determined in the following manner. An accurately weighed portion of each compound was weighed into a separate, tared glass container that was open to the ambient atmosphere. Periodically during the storage period that followed, each sample was re-weighed and the mass recorded. At the end of the 6-day storage period, the change in mass at each interval was determined (Table 2).
For series [4] the following is noted: background statement; cited from earlier work.
For series [5] the following is noted: 20 mg/kg intravenously (VitaCarn 20% solution) after every dialysis treatment, six months; cited from earlier work.
The mark [6] stands for this setting: 6-day storage open to ambient atmosphere.

“Also recorded” adds a separate entry of the source. Read-outs that look alike come from different tables or passages of the source.

As for `C[N+](C)(C)C[C@H](O)CC(=O)[O-].O=C([O-])CCC(=O)[O-].[Ca+2]` [L-carnitine calcium succinate], in series [1], the “hygroscopicity and stability of the solid” value (“hygroscopicity and stability” below) is recorded as “hygroscopic”.
With `CC(=O)[O-].CC(=O)[O-].C[N+](C)(C)C[C@H](O)CC(=O)[O-].[Ca+2]` [L-carnitine calcium acetate], the “change in plasma and red blood cell carnitine concentrations and total/free carnitine ratio” value in series [2] was “measurable increases”. Also, the “change in mass, final vs initial net weight” value (“change in mass, final” below) in series [3] (setting [6]) is listed as “(+0.3%)”. For the same compound, the “Conclusion & Observations” value in series [3] (6-day storage open to ambient atmosphere, calcium acetate) is “did not absorb water and was stable during storage”; in series [3] (6-day storage open to ambient atmosphere, listed as L-Carnitine calcium acetate, calcium acetate) it was “absorb water and was stable during storage”. Besides, in series [3], the “Net weight, final” value was 149.5 mg.
`C[N+](C)(C)C[C@H](O)CC(=O)[O-].[Ca]` [L-carnitine calcium salt]: in series [1], the “hygroscopicity and stability” value is “hygroscopic”.
For `CCC(=O)[O-].CCC(=O)[O-].C[N+](C)(C)C[C@H](O)CC(=O)[O-].[Ca+2]` [L-carnitine calcium propionate], in series [3] (setting [6]), the “change in mass, final” value was “(+5%)”. The figures for the “Conclusion & Observations” value in series [3] (higher relative humidities (above about 20%)) and in series [3] (relative humidity less than about 20%) were “absorbed water. Compound became” and “mobility of the material did not change”, respectively. In addition, the “Net weight, final” value in series [3] turned out to be 170.2 mg.
In the case of L-carnitine calcium butyrate, the “hygroscopicity and stability” value in series [1] (exposure to the atmosphere) was “not hygroscopic; also recorded: lack of hygroscopicity or deliquescence”; in series [1] (provided that the relative humidity is less than about 20%), “not hygroscopic or deliquescent and is stable during storage”.
With `C[N+](C)(C)C[C@H](O)CC(=O)[O-].O=C([O-])/C=C/C(=O)[O-].[Ca+2]` [L-carnitine calcium fumarate], the “hygroscopicity and stability” value in series [1] is “hygroscopic”.
Take `C[N+](C)(C)C[C@H](O)CC(=O)[O-]` [L-carnitine, L-(−)-Carnitine]: the “hygroscopicity (known)” value in series [4] was “very hygroscopic”. The “increase of plasma and red blood cell total carnitine concentrations” value in series [5] is reported as “eightfold”. Besides, in series [3] (setting [6]), the “Conclusion & Observations” value is “absorbed water. Material is hygroscopic” and the “change in mass, final” value is reported as “(+>8%)”. In addition, in series [3], the “Net weight, final” value is given as more than 226.8 mg.
